Test results reported in patent publication US8431525B2, “Coelenteramide analogs” (JNC Corporation, priority 2009, dated 2013).

Assays:
[1] = Fluorescence spectra at a final concentration of 30 μM (Example 2); assay type: physicochemical; settings: excited at 330 nm; for Fluorescence Intensity (MeOH) / λmax (MeOH)/nm: methanol, 30 μM; for Fluorescence Intensity (PB) / λmax (PB)/nm: phosphate buffer pH 7.4, 30 μM
Protocol: (§1) The fluorescence quantum yield of each CTMD analog synthesized was determined by the following procedure. The fluorescence spectrum was measured at 25° C. using a spectrofluorometer FP-6500 of JASCO (JASCO Corp., Tokyo). Specifically, the CTMD analog was dissolved in methanol (MeOH) or in 67 mM phosphate buffer (PB) (pH 7.4) at a final concentration of 750 nM using a quartz cell (light path length of 10 mm). Measurement was performed 3 times at the excited wavelength of 330 nm, emission/excitation band width of 3 nm, response of 0.5 second and scanning rate of 100 nm/min. The average was taken as the fluorescence spectrum of the compound. The fluorescence quantum yield was determined after the spectrum was corrected.
(§2) The fluorescence quantum yield determined in EXAMPLE 1 was estimated by measuring the fluorescence spectra when the final concentration of coelenteramide analogs was 750 nM. When the final concentration was 750 nM as in EXAMPLE 1, any fluorescence spectrum was not detected for c-14, c-31 and c-36 both in methanol and in a phosphate buffer, and not detected for c-25 in a phosphate buffer, in coelenteramide analogs of the present invention (n.d.: not detected). With respect to c-14, c-31, c-25 and c-36 that no fluorescence spectrum was detected, fluorescence spectra were measured under the same conditions as in EXAMPLE 1 except that the final concentration of these coelenteramide analogs was 30 μM. In a similar method, the fluorescence spectrum for C-4 was also measured at a final concentration of 30 μM. The fluorescence spectrum also for […] was measured in 50 mM Tris-HCl (pH 7.6) containing 10 mM CaCl2 under the same conditions as in EXAMPLE 1 except that the final concentration was 18 μM.

[2] = Fluorescence spectrum and fluorescence quantum yield of CTMD analogs at 750 nM (Example 1); assay type: physicochemical; settings: for Fluorescence quantum yield (PB) / λmax (PB)/nm: 67 mM phosphate buffer pH 7.4, 750 nM; for Fluorescence quantum yield (PB) / λmax (PB)/nm / λmax (MeOH)/nm / Fluorescence quantum yield (MeOH): 25° C., excited at 330 nm; for Fluorescence quantum yield (PB) / Fluorescence quantum yield (MeOH): relative to quinine sulfate 0.55; for λmax (PB)/nm / λmax (MeOH)/nm: fluorescence emission; for λmax (MeOH)/nm / Fluorescence quantum yield (MeOH): methanol; for λmax (MeOH)/nm / Fluorescence quantum yield (MeOH) / fluorescence spectrum detected: 750 nM; for fluorescence properties compared with known CTMD (c-4) or h-CTMD (c-13): from TABLE 1
Protocol: as §1
Quinine sulfate was used as a standard for determining the fluorescence quantum yield. After quinine sulfate (Wako Pure Chemical Industries) was dissolved in 0.1N sulfuric acid aqueous solution, measurement was performed at the excitation light of 366 nm under the conditions for fluorescence measurements described above. The relative fluorescence quantum yield (fluorescence intensity) of the compound was calculated relative to the quantum yield of quinine sulfate as being 0.55.

[3] = Fluorescence spectrum in 50 mM Tris-HCl (pH 7.6) containing 10 mM CaCl2 at 18 μM; assay type: physicochemical; settings: 10 mM CaCl2, 18 μM
Protocol: as §2
The fluorescence spectrum of c-38 was measured at 25° C. using a JASCO spectrofluorometer FP-6500 (JASCO Corp., Tokyo). Specifically, c-38 was dissolved in 50 mM Tris-HCl (pH 7.6) containing 10 mM CaCl2 at a final concentration of 18 μM using a quartz cell (light path length of 10 mm). […] The average was taken as the fluorescence spectrum.

[4] = 0.1N H2SO4, ex. 366 nm; value taken as reference; cited from earlier work
[5] = both in methanol and in a phosphate buffer

## O=C(Cc1ccc(O)cc1)Nc1ncc(-c2ccc(O)cc2)nc1Cc1ccccc1 [c-4, 3-benzyl-5-(4-hydroxyphenyl)-2-[(4-hydroxyphenyl)acetylamino]pyrazine, reference compound]
[1]
  Fluorescence Intensity (MeOH): 80.0
  λmax (MeOH)/nm: 428.0 nm
  Fluorescence Intensity (PB): 1.7
  λmax (PB)/nm: 444.5 nm
[2]
  Fluorescence quantum yield (PB): 0.001
  λmax (PB)/nm: 451 nm
  λmax (MeOH)/nm: 427.5 nm
  Fluorescence quantum yield (MeOH): 0.012

## Oc1ccc(-c2cnc(NC(=S)Cc3ccccc3)c(Cc3ccccc3)n2)cc1 [c-14, 3-Benzyl-5-(4-hydroxyphenyl)-2-(phenylthioacetylamino)pyrazine]
other
  melting point: 195 to 198 °C
[1]
  Fluorescence Intensity (MeOH): 6.5
  λmax (MeOH)/nm: 428.0 nm
  Fluorescence Intensity (PB): 1.4
  λmax (PB)/nm: 435.5 nm
[2]; [5]
  fluorescence spectrum detected: not detected
[2]
  fluorescence properties compared with known CTMD (c-4) or h-CTMD (c-13): different fluorescence properties

## CC(=O)Nc1ncc(-c2ccc(O)cc2)nc1Cc1ccccc1 [c-25, 2-Acetylamino-3-benzyl-5-(4-hydroxyphenyl)pyrazine]
[1]
  Fluorescence Intensity (PB): 2.0
  λmax (PB)/nm: 446.0 nm
[2]; in a phosphate buffer
  fluorescence spectrum detected: not detected
[2]
  λmax (PB)/nm: 446.5 nm
  λmax (MeOH)/nm: 425.5 nm
  Fluorescence quantum yield (MeOH): 0.009

## CC(=O)Oc1ccc(-c2cnc(NC(=S)Cc3ccccc3)c(Cc3ccccc3)n2)cc1 [c-31, 5-(4-Acetoxyphenyl)-3-benzyl-2-(phenylthioacetylamino)pyrazine]
other
  melting point: 143 to 145 °C
[1]
  Fluorescence Intensity (MeOH): 5.2
  λmax (MeOH)/nm: 422.0 nm
  Fluorescence Intensity (PB): 1.7
  λmax (PB)/nm: 413.5 nm
[2]; [5]
  fluorescence spectrum detected: not detected
[2]
  fluorescence properties compared with known CTMD (c-4) or h-CTMD (c-13): different fluorescence properties

## O=[N+]([O-])c1ccc(S(=O)(=O)Nc2ncc(-c3ccc(O)cc3)nc2Cc2ccccc2)cc1 [c-36, 3-Benzyl-5-(4-hydroxyphenyl)-2-[(4-nitrophenyl)sulfonylamino]pyrazine]
other
  melting point: 176 to 177.5 °C (dec.)
[1]
  Fluorescence Intensity (MeOH): 3.6
  λmax (MeOH)/nm: 433.0 nm
  Fluorescence Intensity (PB): 0.8
  λmax (PB)/nm: 433.5 nm
[2]; [5]
  fluorescence spectrum detected: not detected
[2]
  fluorescence properties compared with known CTMD (c-4) or h-CTMD (c-13): different fluorescence properties

## O=S(=O)(Cc1ccc(O)cc1)Nc1ncc(-c2ccc(O)cc2)nc1Cc1ccccc1 [c-38, 3-Benzyl-2-(4-hydroxybenzyl)sulfonylamino-5-(4-hydroxyphenyl)pyrazine]
other
  melting point: 194.5 to 196.5 °C
[3]; excited at 330 nm, FIG. 4
  fluorescence capacity: has the fluorescence capacity

## CC(=O)Oc1ccc(-c2cnc(N(S(=O)(=O)c3ccc([N+](=O)[O-])cc3)S(=O)(=O)c3ccc([N+](=O)[O-])cc3)c(Cc3ccccc3)n2)cc1 [c-40, 5-(4-Acetoxyphenyl)-3-benzyl-2-bis(4-nitrophenylsulfonyl)aminopyrazine]
other
  melting point: 227 to 229.5 °C (dec.)
[2]
  Fluorescence quantum yield (PB): 0.021
  λmax (PB)/nm: 415 nm
  λmax (MeOH)/nm: 407.5 nm
  fluorescence properties compared with known CTMD (c-4) or h-CTMD (c-13): different fluorescence properties
  Fluorescence quantum yield (MeOH): 0.004

## O=S(=O)(Cc1ccccc1)N(c1ncc(-c2ccccc2)nc1Cc1ccccc1)S(=O)(=O)Cc1ccccc1 [c-42, 3-Benzyl-2-bis(benzylsulfonyl)amino-5-phenylpyrazine]
other
  melting point: 71.5 to 74.5 °C
[2]
  Fluorescence quantum yield (PB): 0.011
  λmax (PB)/nm: 420.5 nm
  λmax (MeOH)/nm: 398.5 nm
  fluorescence properties compared with known CTMD (c-4) or h-CTMD (c-13): different fluorescence properties
  Fluorescence quantum yield (MeOH): 0.180

## Oc1ccc(CC(=S)Nc2ncc(-c3ccc(O)cc3)nc2Cc2ccccc2)cc1 [c-45, 3-Benzyl-5-(4-hydroxyphenyl)-2-[(4-hydroxyphenyl)thioacetylamino]pyrazine]
other
  melting point: 101 to 103 °C
[3]
  fluorescence ability in an aqueous solution: had the fluorescence ability

## C=C[C@H]1CN2CC[C@H]1C[C@H]2[C@H](O)c1ccnc2ccc(OC)cc12.C=C[C@H]1CN2CC[C@H]1C[C@H]2[C@H](O)c1ccnc2ccc(OC)cc12.O=S(=O)(O)O [quinine, quinine sulfate, reference compound]
[4]
  Fluorescence quantum yield of the standard: 0.55
[2]; 0.1N H2SO4, ex. 366 nm
  λmax of the standard: 451 nm
